This is an account of results in patent publication US12721838B2 (Henry Ford Health System, priority 2020, dated 2026).

Assay [1] has as its target T1, Trib2-Luciferase (Luc-Trib2) fusion (Homo sapiens, UniProt Q92519).
T1 sequence (Q92519 with tags, fused parts or gaps): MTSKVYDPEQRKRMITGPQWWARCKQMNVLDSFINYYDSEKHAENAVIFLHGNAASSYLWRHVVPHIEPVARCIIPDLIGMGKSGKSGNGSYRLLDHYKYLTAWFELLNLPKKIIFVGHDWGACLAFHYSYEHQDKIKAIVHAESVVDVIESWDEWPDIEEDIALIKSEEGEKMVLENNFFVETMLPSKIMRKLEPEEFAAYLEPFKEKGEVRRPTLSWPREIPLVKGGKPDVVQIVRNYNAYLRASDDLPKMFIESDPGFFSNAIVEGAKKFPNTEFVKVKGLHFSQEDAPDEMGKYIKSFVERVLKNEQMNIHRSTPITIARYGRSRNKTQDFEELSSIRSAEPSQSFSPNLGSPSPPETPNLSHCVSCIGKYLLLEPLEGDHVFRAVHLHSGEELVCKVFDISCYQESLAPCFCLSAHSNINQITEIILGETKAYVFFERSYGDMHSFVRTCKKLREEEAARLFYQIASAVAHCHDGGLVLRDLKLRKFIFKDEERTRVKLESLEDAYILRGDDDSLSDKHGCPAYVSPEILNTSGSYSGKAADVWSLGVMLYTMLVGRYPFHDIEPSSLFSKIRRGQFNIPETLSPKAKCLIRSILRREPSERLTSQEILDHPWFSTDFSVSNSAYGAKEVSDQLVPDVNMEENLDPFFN
To be noted: 10 μM, 24 hours; Trib2-Luciferase fusion construct-transfected HFF cells; […].

Assay [2] addresses T1, Trib2-Luciferase (Luc-Trib2) fusion. The experiment in a line: cell-based. To be noted: HFF, read-out: Luciferase activity (%).

Take `Nc1ccc(O)c(C(=O)O)c1` [5-Aminosalicyclic acid]: the “Luciferase activity (%)” value in assay [1] amounted to 84%.
In the case of `CC(=O)NCCCCCC(=O)O` [6-Acetamidohexanoic], the “Luciferase activity (%)” value in assay [1] was found to be 100%.
Consider `C#Cc1cccc(Nc2ncnc3cc(OCCOC)c(OCCOC)cc23)c1` [Erlotinib], for which, in assay [2], the activity at 10 µM was found to be 50%.
Same read-out and setting: with `C[C@]12CC[C@@H]3c4ccc(O)cc4CC[C@H]3[C@@H]1CCC2=O` [Estrone] the figure was 82%.
For `CC[C@@H](CO)NCCN[C@@H](CC)CO` [Ethambutol], the activity at 10 µM in assay [2] came to 98%.
The same measure, in the same setting: with `CCOC(=O)c1cncn1[C@H](C)c1ccccc1` [Etomidate] the figure was 100%; with `NC(N)=Nc1nc(CSCCC(N)=NS(N)(=O)=O)cs1` [Famotidine], 100%.
Regarding `CC(C)OC(=O)C(C)(C)Oc1ccc(C(=O)c2ccc(Cl)cc2)cc1` [Fenofibrate], in assay [2], the activity at 10 µM turned out to be 92%.
Still for that read-out and setting: with `CCCCc1nc(C)c(CC(=S)N(C)C)c(=O)n1Cc1ccc(-c2ccccc2-c2nnn[nH]2)cc1` [Fimasartan] the figure was 88%; with `CCCCCCCCc1ccc(CCC(N)(CO)CO)cc1` [Fingolimod], 80%.
Turning to `CC(=O)OCC(=O)[C@@]12OC(C)(C)O[C@@H]1C[C@H]1[C@@H]3C[C@H](F)C4=CC(=O)C=C[C@]4(C)[C@@]3(F)[C@@H](O)C[C@@]12C` [Fluocinonide], in assay [2], the activity at 10 µM is 78%.
`N=C(N)NC(=O)Cc1c(Cl)cccc1Cl` [Guanfacine]: the activity at 10 µM in assay [2] is 100%.
On to `CC(C)C(=O)c1c(C(C)C)nn2ccccc12` [Ibudilast], for which the activity at 10 µM in assay [2] turned out to be 85%.
Same read-out and setting: with `CN(C)CCCN1c2ccccc2CCc2ccccc21` [Imipramine] the figure was 86%.
`CCc1c2c(nc3ccc(OC(=O)N4CCC(N5CCCCC5)CC4)cc13)-c1cc3c(c(=O)n1C2)COC(=O)[C@]3(O)CC` [Irinotecan]: the activity at 10 µM in assay [2] is 85%.
Same read-out and setting: with `O[C@@H]1CO[C@H]2[C@@H]1OC[C@@H]2O` [Isosorbide] the figure was 91%; with `Cc1c(OCC(F)(F)F)ccnc1C[S+]([O-])c1nc2ccccc2[nH]1` (centres unmarked) [Lansoprazole], 78%; with `C[N+](C)(C)C[C@H](O)CC(=O)[O-]` [Levocarnitine], 84%.
On the same count and under the same terms, with `CCOC(=O)CC(SP(=S)(OC)OC)C(=O)OCC` (centres unmarked) [Malathion] the figure was 91%; with `Cc1cnc(NC(=O)C2=C(O)c3ccccc3S(=O)(=O)N2C)s1` [Meloxicam], 100%; with `CC(=O)OC(C)C[N+](C)(C)C` (centres unmarked) [Methacholine], 99%.
As to `Cc1cccc(C)c1OCC(C)N` (centres unmarked) [Mexiletine], the activity at 10 µM in assay [2] is 86%.
For `CN1CCN2c3ccccc3Cc3ccccc3C2C1` (centres unmarked) [Mianserin], the activity at 10 µM in assay [2] is 55%.
The same measure, in the same setting: with `CCN(CC)C(=O)C1(c2ccccc2)CC1CN` (centres unmarked) [Milnacipran] the figure was 85%.
On the same count and under the same terms, with `Cc1cc(-c2ccccc2)nnc1NCCN1CCOCC1` [Minaprine] the figure was 79%; with `Cc1ccccc1C(=O)Nc1ccc(C(=O)N2CCCC(N(C)C)c3ccccc32)cc1` (centres unmarked) [Mozavaptan], 86%; with `CC1CCc2c(N3CCC(O)CC3)c(F)cc3c(=O)c(C(=O)O)cn1c23` (centres unmarked) [Nadifloxacin], 96%.
The same measure, in the same setting: with `O=C(Nc1ccc([N+](=O)[O-])cc1Cl)c1cc(Cl)ccc1O` [Niclosamide] the figure was 62%.
`Cc1cn(-c2cc(NC(=O)c3ccc(C)c(Nc4nccc(-c5cccnc5)n4)c3)cc(C(F)(F)F)c2)cn1` [Nilotinib]: the activity at 10 µM in assay [2] came out at 99%.
`COC(=O)C1=C(C#N)NC(C)=C(C(=O)OC(C)C)C1c1cccc([N+](=O)[O-])c1` (centres unmarked) [Nilvadipine]: the activity at 10 µM in assay [2] worked out at 89%.
Still for that read-out and setting: with `COc1ccc2c(c1OC)C(=O)O[C@@H]2[C@H]1c2c(cc3c(c2OC)OCO3)CCN1C` [Noscapine] the figure was 100%.
The same measure, in the same setting: with `CCCc1nc(C(C)(C)O)c(C(=O)O)n1Cc1ccc(-c2ccccc2-c2nnn[nH]2)cc1` [Olmesartan] the figure was 80%.
On the same count and under the same terms, with `NCCC[C@H](NC(=O)[C@@H]1CCCN1C(=O)[C@@H]1CSSC[C@H](N)C(=O)N[C@@H](Cc2ccc(O)cc2)C(=O)N[C@@H](Cc2ccccc2)C(=O)N[C@@H](CCC(N)=O)C(=O)N[C@@H](CC(N)=O)C(=O)N1)C(=O)NCC(N)=O` [Ornipressin] the figure was 27%.
As for `CC(=O)N1C[C@H](O)C[C@H]1C(=O)O` [Oxaceprol], the activity at 10 µM in assay [2] is 100%.
Still for that read-out and setting: with `Fc1ccc([C@@H]2CCNC[C@H]2COc2ccc3c(c2)OCO3)cc1` [Paroxetine] the figure was 93%; with `Cc1cccn2c(=O)c(-c3nnn[nH]3)cnc12` [Pemirolast], 88%; with `OC1(c2ccc(Cl)c(C(F)(F)F)c2)CCN(CCCC(c2ccc(F)cc2)c2ccc(F)cc2)CC1` [Penfluridol], 71%.
For the compound `c1cc(CN2CCCNCCNCCCNCC2)ccc1CN1CCCNCCNCCCNCC1` [Plerixafor], in assay [2], the activity at 10 µM was 93%.
The same measure, in the same setting: with `Cc1ccc(C(=O)Nc2ccc(CN3CCN(C)CC3)c(C(F)(F)F)c2)cc1C#Cc1cnc2cccnn12` [Ponatinib] the figure was 42%; with `COc1cc2nc(N3CCN(C(=O)c4ccco4)CC3)nc(N)c2cc1OC` [Prazosin], 49%; with `CCCOc1ccc(C(=O)OCCN(CC)CC)cc1N` [Proparacaine], 88%.
As for `CN(C)C(=O)Oc1ccc[n+](C)c1` [Pyridostigmine], the activity at 10 µM in assay [2] amounted to 76%.
The same measure, in the same setting: with `CCC(=O)NCC[C@@H]1CCc2ccc3c(c21)CCO3` [Ramelteon] the figure was 100%; with `COc1ccccc1OCC(O)CN1CCN(CC(=O)Nc2c(C)cccc2C)CC1` (centres unmarked) [Ranolazine], 100%.
Still for that read-out and setting: with `Cn1c([N+](=O)[O-])cnc1COC(N)=O` [Ronidazole] the figure was 100%; with `Nc1ccc(S(=O)(=O)Nc2ncccn2)cc1` [Sulfadiazine], 70%.
As for `[H]/N=C(/N)NS(=O)(=O)c1ccc(N)cc1` [Sulfaguanidine], in assay [2], the activity at 10 µM was 84%.
Still for that read-out and setting: with `Cc1nnc(NS(=O)(=O)c2ccc(N)cc2)s1` [Sulfamethizole] the figure was 94%; with `CC1(C)CCC(C)(C)c2cc(NC(=O)c3ccc(C(=O)O)cc3)ccc21` [Tamibarotene], 100%.
Same read-out and setting: with `OB1OCc2cc(F)ccc21` [Tavaborole] the figure was 75%; with `O=c1[nH]c(=O)n(C2CCCO2)cc1F` (centres unmarked) [Tegafur], 100%; with `Cc1cn([C@@H]2C[C@@H](O)[C@H](CO)O2)c(=O)[nH]c1=O` [Telbivudine], 91%.
Same read-out and setting: with `CCOC(=O)[C@@H](N)Cc1ccc(-c2cc(O[C@H](c3ccc(Cl)cc3-n3ccc(C)n3)C(F)(F)F)nc(N)n2)cc1` [Telotristat etiprate] the figure was 94%; with `COc1cc([C@@H]2c3cc4c(cc3[C@@H](O[C@@H]3O[C@@H]5CO[C@@H](c6cccs6)O[C@H]5[C@H](O)[C@H]3O)[C@H]3COC(=O)[C@H]23)OCO4)cc(OC)c1O` [Teniposide], 70%.
In the case of `CC(C)N1CCN(c2ccc(OCC3COC(Cn4cncn4)(c4ccc(Cl)cc4Cl)O3)cc2)CC1` (centres unmarked) [Terconazole], in assay [2], the activity at 10 µM worked out at 82%.
`CC1(C)S[C@@H]2[C@H](NC(=O)[C@H](C(=O)O)c3ccsc3)C(=O)N2[C@H]1C(=O)O` [Ticarcillin]: the activity at 10 µM in assay [2] was determined as 87%.
The same measure, in the same setting: with `CN(C)c1cc(NC(=O)CNC(C)(C)C)c(O)c2c1C[C@H]1C[C@H]3[C@H](N(C)C)C(O)=C(C(N)=O)C(=O)[C@@]3(O)C(O)=C1C2=O` [Tigecycline] the figure was 63%.
On the same count and under the same terms, with `C[C@]12C=CC(=O)C=C1CC[C@H]1[C@@H]3C[C@@H](O)[C@](O)(C(=O)CO)[C@@]3(C)C[C@H](O)[C@@]12F` [Triamcinolone] the figure was 72%.
With `Nc1nc(N)c2nc(-c3ccccc3)c(N)nc2n1` [Triamterene], the activity at 10 µM in assay [2] is 100%.
Same read-out and setting: with `COc1ccc(CN2CCNCC2)c(OC)c1OC` [Trimetazidine] the figure was 100%; with `CCCOc1ccc(S(=O)(=O)NCCC2CCCN2C)cc1-c1nc2c(CCC)nn(C)c2c(=O)[nH]1` (centres unmarked) [Udenafil], 100%; with `C=C[C@]1(C)C[C@@H](OC(=O)CSC(C)(C)CNC(=O)[C@H](N)C(C)C)[C@]2(C)[C@H](C)CC[C@]3(CCC(=O)[C@H]32)[C@@H](C)[C@@H]1O` [Valnemulin], 83%.
With `CC1(C)CCC(CN2CCN(c3ccc(C(=O)NS(=O)(=O)c4ccc(NCC5CCOCC5)c([N+](=O)[O-])c4)c(Oc4cnc5[nH]ccc5c4)c3)CC2)=C(c2ccc(Cl)cc2)C1` [Venetoclax], the activity at 10 µM in assay [2] turned out to be 184%.
As for `CC[C@]12CCCN3CCc4c(n(c5ccccc45)[C@@](O)(C(=O)OC)C1)[C@@H]32` [Vincamine], in assay [2], the activity at 10 µM is 80%.
Regarding `CCOC(=O)N[C@@H]1CC[C@@H]2[C@@H](C1)C[C@H]1C(=O)O[C@H](C)[C@H]1[C@H]2/C=C/c1ccc(-c2cccc(F)c2)cn1` [Vorapaxar], the activity at 10 µM in assay [2] is 59%.
